Laboratory results published in patent US20020147158A1, “Composition and method for preventing and treating sinusoidal obstruction syndrome and radiation-induced liver disease” (University of Southern California, priority 2001, published 2002).
Entries after “also recorded” stand apart in the source; their conditions may differ.

How the values were obtained:
[1] = tested on: monocrotaline-induced hepatic venoocclusive disease; experiment: monocrotaline-induced rat model of SOS (hepatic venoocclusive disease), blinded histologic scoring; type: in vivo; settings: for prevention of SOS (overall histologic score, FIG. 1): monocrotaline model
Description: This FIGURE describes the effect of MMP inhibition in the in monocrotaline-induced model of SOS. Injury is rated as absent (−) or as one, two or three plus. The overall score reflects central vein (CV) endothelial damage, hemorrhage and coagulative necrosis: 2-3 points is considered mild SOS, 4-6 points is considered moderate SOS and 7-9 points is severe disease. The MMP2/MMP9 inhibitor used is 2-[(4-biphenylylsulfonyl)amino]-3-phenyl-propionic acid.
The present invention provides methods for using matrix metalloproteinase inhibitors to prevent and treat chemotherapy-induced liver disease, such as SOS and radiation-induced liver disease. These studies were done in an in vivo model of monocrotaline-induced hepatic venoocclusive disease which closely resembles the human disease.^8 Two commercially available MMP inhibitors were tested in the in vivo rat model of hepatic venoocclusive disease: doxycycline and the MMP-2/MMP-9 inhibitor, 2-[(4-biphenylsulfonyl)amino]-3-phenyl-propionic acid. Doxycycline, 15 mg/kg was given twice daily by gavage prior to onset of the disease and continued until the time of sacrifice. 2-[(4-biphenylsulfonyl)amino]-3-phenyl-propionic acid, 200 μg/hour was infused into the portal circulation until the time of sacrifice. A systematic scoring system was devised to review all the changes associated with hepatic venoocclusive disease.
The rats that were treated with the MMP inhibitors were sacrificed on day 4, which is the time-point with most severe disease in this model of hepatic venoocclusive disease when no therapeutic interventions are used. […] Both of these MMP inhibitors prevent hepatic venoocclusive disease in a dose-dependent manner, these showing that this is a class effect of MMP inhibitors and characteristic of MMP inhibition.

MMPs = settings: stated in words, no test described; cited from earlier work

| Molecule | hepatic venoocclusive disease on blinded pathology scoring ([1]; day 4, 200 μg/hour infused intraportally by osmotic minipump) | protection from liver changes at lower doses ([1]; doses lower than 15 mg/kg twice daily (doxycycline) or 200 μg/hour (BPP)) | prevention of SOS (overall histologic score, FIG. 1) ([1]; day 4, listed as 2-[(4-biphenylylsulfonyl)amino]-3-phenyl-propionic acid) | prevention of SOS (overall histologic score, FIG. 1) ([1]; day 4, listed as BPP) | inhibitory effect on MMPs (MMPs) | prevention of SOS (overall histologic score, FIG. 1) ([1]; day 4) |
| --- | --- | --- | --- | --- | --- | --- |
| O=C(O)C(Cc1ccccc1)NS(=O)(=O)c1ccc(-c2ccccc2)cc1 (centres unmarked) [2-[(4-biphenylsulfonyl)amino]-3-phenyl-propionic acid] | absence of hepatic venoocclusive disease | partial protection | completely prevented | completely inhibits SOS | – | – |
| Cc1c2c(c(O)c3c(O)cccc13)C(=O)[C@]1(O)C(=O)C(C(N)=O)=C(O)[C@@H](N(C)C)[C@@H]1C2 [anhydrotetracycline] | – | – | – | – | weak MMP inhibitors; also recorded: little inhibitory effect on MMPs | do not prevent SOS; also recorded: minimal protective effect |
| isochlorotetracycline | – | – | – | – | weak MMP inhibitors; also recorded: little inhibitory effect on MMPs | do not prevent SOS; also recorded: minimal protective effect |
